Test results as given in US10710980B2, “Aminopyridine derivatives and their use as selective ALK-2 inhibitors” (priority 2016, dated 2020).

Tests used:
[1] = test system: BMP response element (BRE) luciferase reporter in HuH7 cells, BMP6 stimulated; assay: BMP signaling reporter gene assay; format: cell-based; settings: Homo sapiens, Huh-7; HuH7 BRE-luciferase, BMP6 100 ng/ml, 5 hours; read-out: MSD BMP RGA IC50
ALK1 (aa166-493) = ALK1 (aa166-493) (Homo sapiens (Human), UniProt P37023); assay: Caliper biochemical peptide phosphorylation assay, ALK1; settings: 15 μm ATP, 60 min at 30° C.; read-out: ALK1 EPK (IC50)
Chain of ALK1 (aa166-493) (P37023 166-493): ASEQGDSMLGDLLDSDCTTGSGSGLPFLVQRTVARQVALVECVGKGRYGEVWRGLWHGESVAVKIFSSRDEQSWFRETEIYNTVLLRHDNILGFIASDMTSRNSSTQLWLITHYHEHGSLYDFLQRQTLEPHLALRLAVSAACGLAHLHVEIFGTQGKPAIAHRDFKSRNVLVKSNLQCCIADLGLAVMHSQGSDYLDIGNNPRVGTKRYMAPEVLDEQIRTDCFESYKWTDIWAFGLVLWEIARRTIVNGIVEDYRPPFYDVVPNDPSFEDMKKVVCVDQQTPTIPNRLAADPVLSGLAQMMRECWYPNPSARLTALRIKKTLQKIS

[2] = target: T1, wild-type ALK2 (aa172-499) (Homo sapiens (Human), UniProt Q04771); assay: Caliper biochemical peptide phosphorylation assay, ALK2; settings: 15 μm ATP, 60 min at 30° C.; read-out: ALK2 EPK (IC50)
T1 sequence (Q04771 172-499): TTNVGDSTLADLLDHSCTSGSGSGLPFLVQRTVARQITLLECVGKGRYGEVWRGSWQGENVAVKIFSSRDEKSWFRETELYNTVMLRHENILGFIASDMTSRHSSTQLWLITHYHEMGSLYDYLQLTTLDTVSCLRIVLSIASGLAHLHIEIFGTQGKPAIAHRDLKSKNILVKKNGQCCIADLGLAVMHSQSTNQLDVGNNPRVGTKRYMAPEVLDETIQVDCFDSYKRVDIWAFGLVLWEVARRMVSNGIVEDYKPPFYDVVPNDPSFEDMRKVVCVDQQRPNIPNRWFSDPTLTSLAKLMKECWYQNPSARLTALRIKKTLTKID

ALK6 (aa168-495) = ALK6 (aa168-495) (Homo sapiens (Human), UniProt O00238); assay: Caliper biochemical peptide phosphorylation assay, ALK6; settings: 15 μm ATP, 60 min at 30° C.; read-out: ALK6 EPK (IC50)
Chain of ALK6 (aa168-495) (O00238 168-495): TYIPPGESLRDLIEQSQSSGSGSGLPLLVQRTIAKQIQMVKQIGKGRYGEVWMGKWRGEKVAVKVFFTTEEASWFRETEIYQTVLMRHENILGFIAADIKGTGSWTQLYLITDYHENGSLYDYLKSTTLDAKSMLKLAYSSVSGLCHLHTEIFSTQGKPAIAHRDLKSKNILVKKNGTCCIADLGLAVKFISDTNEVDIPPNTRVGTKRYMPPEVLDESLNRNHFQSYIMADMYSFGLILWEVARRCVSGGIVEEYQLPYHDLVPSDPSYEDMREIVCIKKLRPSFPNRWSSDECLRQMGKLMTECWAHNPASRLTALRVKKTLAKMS

[3] = target: T1, wild-type ALK2 (aa172-499); assay: ADPGlo biochemical autophosphorylation assay, ALK2; settings: 15 μm ATP, 60 min at 32° C.

Nc1ncc(-c2ccc([C@@]34C[C@@H]3CN(CCF)C4)cc2)cc1C(=O)NC12CCC(O)(CC1)CC2 [Example 57, 2-amino-5-(4-((1R,5S)-3-(2-fluoroethyl)-3-azabicyclo[3.1.0]hexan-1-yl)phenyl)-N-(4-hydroxybicyclo[2.2.2]octan-1-yl)nicotinamide]
IC50 [1]: 144 nM

Nc1ncc(-c2ccc([C@]34C[C@H]3CN(C3CCOCC3)C4)cc2)cc1C(=O)N[C@H]1CC[C@H](O)CC1 [Example 33]
IC50 [1]: 26 nM
IC50 (ALK1 (aa166-493)): 220 nM
IC50 [2]: 20 nM
IC50 (ALK6 (aa168-495)): 2000 nM
IC50 [3]: 10 nM

C[C@]1(O)CC[C@H](NC(=O)c2cc(-c3ccc([C@@]45C[C@@H]4CN(C4CCOCC4)C5)cc3)cnc2N)CC1 [Example 14, 2-amino-N-((1r,4R)-4-hydroxy-4-methylcyclohexyl)-5-(4-((1R,5S)-3-(tetrahydro-2H-pyran-4-yl)-3-azabicyclo[3.1.0]hexan-1-yl)phenyl)nicotinamide]
IC50 [1]: 205 nM

Nc1ncc(-c2ccc([C@]34C[C@H]3CN(CCF)C4)cc2)cc1C(=O)NC12CCC(O)(CC1)CC2 [Example 73, 2-amino-5-(4-((1S,5R)-3-(2-fluoroethyl)-3-azabicyclo[3.1.0]hexan-1-yl)phenyl)-N-(4-hydroxybicyclo[2.2.2]octan-1-yl)nicotinamide]
IC50 [1]: 130 nM

Nc1ncc(-c2ccc([C@@]34C[C@@H]3CN(C3CCC(F)(F)CC3)C4)cc2)cc1C(=O)N[C@H]1CC[C@H](O)CC1 [Example 25, 2-amino-5-(4-((1R,5S)-3-(4,4-difluorocyclohexyl)-3-azabicyclo[3.1.0]hexan-1-yl)phenyl)-N-((1r,4R)-4-hydroxycyclohexyl)nicotinamide]
IC50 [1]: 35 nM
IC50 [2]: 18 nM
IC50 (ALK6 (aa168-495)): 3000 nM
IC50 [3]: 9 nM

C[C@@H]1CCCN1Cc1ccc(-c2cnc(N)c(C(=O)N[C@H]3CC[C@](C)(O)CC3)c2)cc1 [Example 72, 2-amino-N-((1r,4R)-4-hydroxy-4-methylcyclohexyl)-5-(4-(((R)-2-methylpyrrolidin-1-yl)methyl)phenyl)nicotinamide]
IC50 (ALK1 (aa166-493)): 2950 nM

Nc1ncc(-c2ccc(C3CCNC3)cc2)cc1C(=O)N[C@H]1CC[C@H](O)CC1 (stereo partly shown) [Example 18, 2-amino-N-((1r,4r)-4-hydroxycyclohexyl)-5-(4-(pyrrolidin-3-yl)phenyl)nicotinamide]
IC50 (ALK1 (aa166-493)): 200 nM

C[C@]1(O)CC[C@H](NC(=O)c2cc(-c3ccc([C@]45C[C@H]4CN(C4CCOCC4)C5)cc3)cnc2N)CC1 [Example 62]
IC50 [1]: 134 nM

Nc1ncc(-c2ccc([C@]34C[C@H]3CN(C3CCC(F)(F)CC3)C4)cc2)cc1C(=O)N[C@H]1CC[C@H](O)CC1 [Example 27, 2-amino-5-(4-((1S,5R)-3-(4,4-difluorocyclohexyl)-3-azabicyclo[3.1.0]hexan-1-yl)phenyl)-N-((1r,4S)-4-hydroxycyclohexyl)nicotinamide]
IC50 [1]: 59 nM
IC50 (ALK1 (aa166-493)): 135 nM
IC50 [2]: 18 nM
IC50 (ALK6 (aa168-495)): 1600 nM
IC50 [3]: 10 nM

Nc1ncc(-c2ccc([C@@]34C[C@@H]3CN(C3CCOCC3)C4)cc2)cc1C(=O)N[C@H]1CC[C@H](O)CC1 [Example 19, 2-amino-N-((1r,4R)-4-hydroxycyclohexyl)-5-(4-((1R,5S)-3-(tetrahydro-2H-pyran-4-yl)-3-azabicyclo[3.1.0]hexan-1-yl)phenyl)nicotinamide]
IC50 [1]: 21 nM
IC50 (ALK1 (aa166-493)): 105 nM
IC50 (ALK6 (aa168-495)): 2250 nM
IC50 [3]: 12 nM

CC(C)N1CCC(c2ccc(-c3cnc(N)c(C(=O)N[C@H]4CC[C@H](O)CC4)c3)cc2)C1 (stereo partly shown) [Example 12, 2-amino-N-((1r,4r)-4-hydroxycyclohexyl)-5-(4-(1-isopropylpyrrolidin-3-yl)phenyl)nicotinamide]
IC50 (ALK1 (aa166-493)): 160 nM
